{
  "source": "ChEMBL document CHEMBL2429770",
  "about": "“Development of Mycobacterium tuberculosis whole cell screening hits as potential antituberculosis agents” (J Med Chem, 2013)",
  "data": [
    {"system": "Mycobacterium tuberculosis", "test": "Antimycobacterial activity against Mycobacterium tuberculosis H37Rv", "type": "functional", "values": [
      {"smiles": "Cc1sc(N)nc1C(=O)O", "MIC": "0.06 mg/L"},
      {"smiles": "COC(=O)c1nc(N)sc1Cc1ccccc1", "MIC": "0.06 mg/L"},
      {"smiles": "Cc1ccc2nc(C)c(C(=O)NCc3cccs3)n2c1", "MIC": "0.19 µM"},
      {"smiles": "COc1ccc2nc(C)cc(OCC(=O)Nc3ccccc3OC)c2c1", "MIC": "0.7 µM"},
      {"smiles": "c1cc2c(s1)CCOC21CCN(Cc2ccc3c(c2)OCCO3)CC1", "MIC": "0.38 µM"},
      {"smiles": "O=C(NC12CC3CC(CC(C3)C1)C2)c1cc2cc(Cl)ccc2[nH]1", "MIC": "0.47 µM"},
      {"smiles": "CCc1ccc([C@@H]2C[C@H](C(F)(F)F)n3ncc(C(=O)NCc4ccc(OC)cc4)c3N2)cc1", "MIC": "0.25 µM"},
      {"smiles": "Cc1cccc(-c2nc(Nc3ccncn3)c3c(C)csc3n2)n1", "MIC": "0.76 µM"},
      {"smiles": "CCCCCCCCCCN1CCCC(O/N=C2\\[C@H](C)C[C@@](C)(OC)[C@H](O[C@@H]3O[C@H](C)C[C@H](N(C)C)[C@H]3O)[C@@H](C)C(=O)[C@@H](C)C(=O)O[C@H](CC)[C@@](C)(O)[C@H](O)[C@H]2C)C1", "note": "(some centres not stated)", "MIC": "0.125 µM"},
      {"smiles": "COc1ccc(CCNc2cc(-c3ccccc3)nc3ncnn23)cc1", "MIC": "0.94 µM"}
    ]},
    {"biological_target": "not listed separately", "test": "Inhibition of Mycobacterium tuberculosis PtpB", "units": {"Ki": "µM"}, "values": [
      {"smiles": "O=C(O)c1cc(-c2ccc(-c3ccc(F)c(C(F)(F)F)c3)cc2C2CCCCC2)on1", "Ki": 0.22},
      {"smiles": "O=P(O)(O)C(F)(F)c1ccc(-c2ccc(F)c(C(F)(F)F)c2)cc1C1CCCCC1", "Ki": 0.69}
    ]}
  ]
}
